As usually defined, the Km is the substrate concentration at which the rate is half of its maximum.

Where two headings read alike, the source gives them in different places.

In experiment [1] the target is T1, recombinant Tetrahymena thermophila Glutathione S Transferase Mu34 (TtGSTm34-8xHis) enzyme, SEQ ID NO: 1 (Tetrahymena thermophila, UniProt I7M2D2).
T1 sequence (I7M2D2 39-257): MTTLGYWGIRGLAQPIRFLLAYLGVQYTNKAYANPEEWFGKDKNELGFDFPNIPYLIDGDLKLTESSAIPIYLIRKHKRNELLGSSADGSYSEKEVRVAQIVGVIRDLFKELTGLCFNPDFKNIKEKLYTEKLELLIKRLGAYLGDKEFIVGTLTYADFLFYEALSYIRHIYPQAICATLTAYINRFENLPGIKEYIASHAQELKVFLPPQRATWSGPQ
Put plainly: Enzyme kinetics of recombinant TtGSTm34-8xHis for substrates GSH and CDNB (spectrophotometric at 340 nm, Lineweaver-Burk). In kind it is biochemical. The following applies: 200 mM potassium phosphate buffer, 25°C; for Km: 7 substrate concentrations 0.1125-3.6 mM, the other substrate (GSH or CDNB) held at 0.9 mM, Lineweaver-Burk graph; for Kcat: kcat = Vmax/Et, the other substrate held at 0.9 mM. On the procedure:
Determination of GST enzyme activities of affinity purified proteins was performed spectrophotometrically in the presence of 1-chloro-2,4-dinitrobenzene (CDNB) as substrate. […] The enzyme activities were measured with BioTek The Synergy ™ HT Elisa device using Gen5 software. The O.D values for enzyme activity were determined at 340 nm for 30 minutes with 2 minutes intervals, using BioTek The Synergy™ HT Elisa Reader kinetics program.
Unit value of activity is defined as the amount of enzyme that catalyzes 1 µmol substrate at 25°C (CDNB extinction coefficient340 nm = 9.6 mM^-1 cm^-1). The enzyme activities were first calculated in terms of U/ml. Then these values were divided by protein concentrations that were determined by Bradford method (Pierce™ Coomassie Plus Bradford Assay Reagent Cat no: 23238). This way specific activities were calculated in terms of U/mg.
Then activity measurements were carried out in 200 mM potassium phosphate buffer at 25°C for 7 different CDNB concentrations: 0,1125 mM, 0,225 mM, 0,45 mM, 0,9 mM, 1,8 mM, 2,7 mM ve 3,6 mM. A 1/V^- 1 [CDNB] Lineweaver-Burk graph was drawn according to the results obtained (Figure 8). With this graphical aid, Km and Vmax values for CDNB were determined.
These calculations were followed by quantitative protein assay (Bradford) and total enzyme amount (Et) was determined. Kcat value, which reflects the enzyme turnover number was calculated using the formula given below: kcat = Vmax /Et [formula]
One way of comparing the catalytic effects of various enzymes or the conversion of different substrates to the product with the same enzyme is to find the specificity constant (V0) for the reactions. The specificity constant is calculated by the following formula: V0 = kcat /km [formula]

The target of experiment [2] is T2, mu class glutathione S-transferase from Manila clam Ruditapes philippinarum (RpGSTµ) (Ruditapes philippinarum, UniProt G9HSP7).
T2 sequence (G9HSP7 1-217): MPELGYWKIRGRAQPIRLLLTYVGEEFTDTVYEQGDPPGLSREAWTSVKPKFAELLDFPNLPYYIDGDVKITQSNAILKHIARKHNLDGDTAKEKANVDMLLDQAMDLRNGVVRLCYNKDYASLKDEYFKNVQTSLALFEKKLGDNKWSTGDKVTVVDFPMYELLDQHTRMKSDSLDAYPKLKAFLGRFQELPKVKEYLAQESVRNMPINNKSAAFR
Particulars: from Bathige et al., 2014, cited from earlier work.

In the case of `N[C@@H](CCC(=O)N[C@@H](CS)C(=O)NCC(=O)O)C(=O)O` [GSH, glutathione], the Michaelis constant (Km) in experiment [1] (read-out: Km) was 540 µM; in experiment [2] (read-out: Km) it was 1030 µM. Besides, in experiment [1], the Kcat is 186.9 s⁻¹.
With `O=[N+]([O-])c1ccc(Cl)c([N+](=O)[O-])c1` [CDNB, 1-Chloro-2,4-dinitrobenzene], the Km was 470 µM in experiment [1] and 560 µM in experiment [2]. In addition, the Kcat in experiment [1] came to 195.4 s⁻¹.

Source of the values: EP3856897B1 (Anadolu Universitesi, priority 2018, dated 2020).
